Data reported in publication PMC11774245 (Journal of Natural Products, 2025).

Tests used:
CB2 receptor = biological target: T1, CB2 receptor (Homo sapiens, UniProt P34972); test: radioligand displacement of [3H]-CP55940 on membranes; type: binding; conditions: read-out: % inhibition at 10 μM; none at 1 μM %
T1 construct: gene CNR2

5-HT1A receptor = biological target: T2, 5-HT1A receptor (Homo sapiens, UniProt P08908); test: radioligand displacement of [3H]-8-hydroxy-DPAT on membranes; supported by PathHunter β-arrestin PAM assay in CHO-K1 cells with human 5-HT1A; type: binding; conditions: read-out: % inhibition at 10 μM; 20% at 1 μM %
T2 construct: gene HTR1A
T2 sequence (P08908 1-422): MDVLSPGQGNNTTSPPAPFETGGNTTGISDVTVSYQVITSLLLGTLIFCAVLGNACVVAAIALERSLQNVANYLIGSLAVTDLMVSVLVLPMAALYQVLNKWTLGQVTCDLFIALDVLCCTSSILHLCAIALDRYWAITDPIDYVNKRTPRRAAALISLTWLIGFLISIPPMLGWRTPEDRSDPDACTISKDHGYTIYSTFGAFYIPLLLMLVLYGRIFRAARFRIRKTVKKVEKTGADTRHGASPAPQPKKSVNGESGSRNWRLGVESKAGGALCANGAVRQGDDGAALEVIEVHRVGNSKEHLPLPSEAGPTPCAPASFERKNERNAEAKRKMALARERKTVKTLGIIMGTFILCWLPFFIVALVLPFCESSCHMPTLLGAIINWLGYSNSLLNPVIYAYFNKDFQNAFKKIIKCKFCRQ

T1 sequence (P34972 whole entry): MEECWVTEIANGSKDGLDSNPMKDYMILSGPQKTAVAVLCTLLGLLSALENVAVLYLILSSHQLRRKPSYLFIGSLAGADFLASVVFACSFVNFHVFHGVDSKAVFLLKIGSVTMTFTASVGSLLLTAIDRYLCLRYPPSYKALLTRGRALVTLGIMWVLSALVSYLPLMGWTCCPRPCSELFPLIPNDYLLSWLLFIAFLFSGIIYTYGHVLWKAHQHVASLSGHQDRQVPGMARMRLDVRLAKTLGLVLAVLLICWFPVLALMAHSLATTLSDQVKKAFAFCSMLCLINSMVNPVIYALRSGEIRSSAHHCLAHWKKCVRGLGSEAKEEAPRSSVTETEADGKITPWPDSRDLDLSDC

## CCCCCc1cc(O)c2c(c1)OC1(C)CCC3C1C2C3(C)C (racemic) [(±)-CBL]
CB2 receptor
  inhibition at 10 µM: 68%
5-HT1A receptor
  inhibition at 10 µM: 75%
